Reference: patent US9181232B2, “Difluoro-hexahydro-cyclopentaoxazinyls and difluoro-hexahydro-benzooxazinyls as BACE1 inhibitors” (Hoffmann-La Roche Inc., priority 2012, dated 2015)

Tests used:
[1] = molecular target: T1, P-gp (human MDR1) (Homo sapiens, UniProt P08183); assay: P-gp (P-Glycoprotein) assay, bidirectional transcellular transport in LLC-PK1 and L-MDR1 cells; type: in vitro ADME; conditions: read-out: P-gp human, efflux ratio: substrate category
T1 construct: host or cells: LLC-PK1 (porcine kidney epithelial) transfected with human MDR1 (L-MDR1)
T1 sequence (P08183 whole entry): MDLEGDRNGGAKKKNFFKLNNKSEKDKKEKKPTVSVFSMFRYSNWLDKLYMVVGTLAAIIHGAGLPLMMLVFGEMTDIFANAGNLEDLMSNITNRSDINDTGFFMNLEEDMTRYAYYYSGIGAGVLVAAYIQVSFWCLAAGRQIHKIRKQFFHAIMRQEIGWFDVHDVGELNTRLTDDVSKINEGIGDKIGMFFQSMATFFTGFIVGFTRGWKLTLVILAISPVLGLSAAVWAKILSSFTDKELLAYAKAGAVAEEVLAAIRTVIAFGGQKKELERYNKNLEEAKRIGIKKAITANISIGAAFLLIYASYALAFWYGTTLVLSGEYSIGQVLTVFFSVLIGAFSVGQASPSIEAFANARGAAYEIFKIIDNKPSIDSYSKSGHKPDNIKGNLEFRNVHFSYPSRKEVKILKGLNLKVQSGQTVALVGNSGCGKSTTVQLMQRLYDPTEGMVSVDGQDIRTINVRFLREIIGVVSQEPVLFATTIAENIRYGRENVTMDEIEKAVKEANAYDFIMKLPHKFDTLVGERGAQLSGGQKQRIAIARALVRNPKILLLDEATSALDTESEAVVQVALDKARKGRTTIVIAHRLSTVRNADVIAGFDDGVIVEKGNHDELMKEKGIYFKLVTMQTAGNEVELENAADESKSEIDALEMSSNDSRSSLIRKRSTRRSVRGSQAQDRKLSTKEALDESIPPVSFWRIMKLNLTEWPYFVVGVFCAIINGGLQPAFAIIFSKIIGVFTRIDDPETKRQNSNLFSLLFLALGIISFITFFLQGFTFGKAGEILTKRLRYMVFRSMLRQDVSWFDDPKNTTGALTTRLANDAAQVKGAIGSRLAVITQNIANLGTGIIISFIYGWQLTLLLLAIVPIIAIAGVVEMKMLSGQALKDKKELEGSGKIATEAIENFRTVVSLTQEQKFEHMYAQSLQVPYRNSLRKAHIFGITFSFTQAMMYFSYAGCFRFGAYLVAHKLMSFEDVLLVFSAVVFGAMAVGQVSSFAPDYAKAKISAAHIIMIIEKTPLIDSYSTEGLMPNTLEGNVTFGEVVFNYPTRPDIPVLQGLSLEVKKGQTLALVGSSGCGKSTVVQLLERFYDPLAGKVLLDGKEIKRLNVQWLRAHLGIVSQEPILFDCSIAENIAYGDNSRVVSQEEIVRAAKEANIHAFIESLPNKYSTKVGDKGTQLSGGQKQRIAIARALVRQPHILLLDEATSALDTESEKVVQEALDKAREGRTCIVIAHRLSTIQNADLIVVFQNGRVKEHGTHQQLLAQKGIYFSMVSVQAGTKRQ
Method: The LLC-PK1 cell line (ATCC #CL-101) is a porcine kidney epithelial cell line. The MDR1 (Human multidrug resistance protein 1) transfected cell lines were obtained from Dr. A. Schinkel, The Netherlands Cancer Institute (Amsterdam, The Netherlands). All cell lines were cultured on permeable inserts (96-insert plates Millipore, 0.11 cm^2 area, pore size 0.4 μm) at 0.73*10^6 cells/ml. Transport measurements were performed at day 4 after seeding. Tightness of the cell monolayer was controlled via the permeability of the extracellular marker lucifer yellow (10 μM).
Bidirectional transcellular transport using LLC-PK1 and L-MDR1 LLC-PK1 cells exogenously expressing the human MDR1)
The experiments were performed on a TECAN automated liquid handling system. […] Concentrations of substrate in both compartments were determined by scintillation counting (digoxin) or by LC-MS/MS. The extracellular marker (lucifer yellow) was quantified using a spectrafluor plus reader at 430/535 nm (Ex/Em). In each experiment 3 different inserts were used for each condition and a mean was calculated. […]
Where Papp, A, C0, and dQ/dt represent the apparent permeability, the filter surface area, the initial concentration, and the amount transported per time period, respectively. Papp values were calculated on the basis of a single time point (2 h).
Transport efflux ratios (ER) were calculated as follows: […]

[2] = in vivo effect; conditions: @ 30 mg/kg p.o.
[3] = molecular target: T2, cathepsin D (from human liver) (Homo sapiens, UniProt P07339); assay: Cathepsin D fluorescent substrate kinetic assay; type: biochemical; conditions: pH 5.5
T2 construct: cathepsin D (from human liver, Calbiochem); purchased Calbiochem; host or cells: human liver (tissue-purified)
T2 sequence (P07339 65-162 limits assumed): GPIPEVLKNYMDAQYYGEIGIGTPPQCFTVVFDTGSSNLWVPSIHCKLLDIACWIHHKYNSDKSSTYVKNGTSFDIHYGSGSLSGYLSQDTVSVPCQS
T2 sequence (P07339 169-412 limits assumed): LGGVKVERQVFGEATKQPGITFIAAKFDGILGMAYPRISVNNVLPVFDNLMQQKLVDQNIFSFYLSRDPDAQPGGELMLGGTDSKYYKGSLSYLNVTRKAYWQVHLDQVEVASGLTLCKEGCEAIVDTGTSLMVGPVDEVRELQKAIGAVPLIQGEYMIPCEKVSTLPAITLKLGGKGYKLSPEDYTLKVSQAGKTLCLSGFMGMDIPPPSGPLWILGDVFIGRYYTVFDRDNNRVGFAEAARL
Description: The MR121 fluorescence assays described below are based on the fact that MR121 forms a non-fluorescent ground state complex with tryptophan. In solution this formation occurs at millimolar concentrations of tryptophan. The mechanism can be used to design a generic biochemical assay for proteases. A substrate peptide is labeled at the N-terminus with tryptophan and at the C-terminus with the fluorophore MR121 (for cathepsin D the 10 amino acid peptide WTSVLMAAPC-MR121 was used; for cathepsin E, MR121-CKLVFFAEDW was used). In absence of protease activity, the substrates remain intact and the MR121 fluorescence is reduced by the high local Trp-concentration. If the substrates are cleaved by the enzymes the MR121 fluorescence is recovered.
The fluorescent substrate cathepsin D and cathepsin E kinetic assays were performed at room temperature in 384-well microtiter plates (black with clear flat bottom, non binding surface plates from Corning) in a final volume of 51 μl. The test compounds were serially diluted in DMSO (15 concentrations, 1/3 dilution steps) and 1 μl of diluted compounds were mixed for 10 min with 40 μl of cathepsin D (from human liver, Calbiochem) diluted in assay buffer (100 mM sodium acetate, 0.05% BSA, pH 5.5; final concentration: 200 nM) or with 40 μl of recombinant human cathepsin E (R&D Systems) diluted in assay buffer (100 mM sodium acetate, 0.05% BSA, pH 4.5; final concentration: 0.01 nM). After addition of 10 μl of the cathepsin D substrate WTSVLMAAPC-MR121 diluted in cathepsin D assay buffer (final concentration: 300 nM) or […] cathepsin E substrate MR121-CKLVFFAEDW diluted in cathepsin E assay buffer (final concentration: 300 nM), the plates were strongly shaken for 2 minutes. The enzymatic reaction was followed in a plate: vision reader (Perkin Elmer) (excitation wavelength: 630 nm; emission: 695 nm) for at least 30 minutes in a kinetic measurement detecting an increase of MR121 fluorescence during the reaction time. The slope in the linear range of the kinetic was calculated and the IC50 of the test compounds were determined using a four parameter equation for curve fitting.

[4] = molecular target: T3, CYP3A4 (Homo sapiens, UniProt P08684); assay: CYP inhibition assay, human liver microsomes, midazolam; type: in vitro ADME; conditions: read-out: CYP IC50 3A4
T3 construct: 0.2 mg/ml pooled human liver microsomes; from tissue; host or cells: pooled human liver microsomes
T3 sequence (P08684 whole entry): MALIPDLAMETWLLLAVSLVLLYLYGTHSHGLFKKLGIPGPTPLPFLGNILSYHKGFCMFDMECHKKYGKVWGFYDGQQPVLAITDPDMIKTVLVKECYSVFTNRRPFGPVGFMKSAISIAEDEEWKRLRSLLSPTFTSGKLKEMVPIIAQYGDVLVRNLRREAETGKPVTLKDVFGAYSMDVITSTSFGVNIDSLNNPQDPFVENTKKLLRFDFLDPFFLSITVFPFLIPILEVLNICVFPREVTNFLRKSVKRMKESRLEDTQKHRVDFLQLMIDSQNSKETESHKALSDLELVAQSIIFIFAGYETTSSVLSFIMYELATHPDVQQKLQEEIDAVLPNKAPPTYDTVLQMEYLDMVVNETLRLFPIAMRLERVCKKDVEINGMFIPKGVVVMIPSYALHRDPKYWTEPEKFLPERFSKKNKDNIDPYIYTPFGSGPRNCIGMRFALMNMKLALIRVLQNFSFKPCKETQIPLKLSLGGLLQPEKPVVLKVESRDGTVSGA
Method: (§1) Inhibition of cytochromes P450 (CYPs) 2C9, 2D6 and 3A4 was assessed using human liver microsomes and CYP-selective substrate metabolism reactions. 50 μl incubations were made up containing (finally) 0.2 mg/ml pooled human liver microsomes, 5 μM substrate (diclofenac for CYP2C9 [4′hydroxylase], dextromethorphan for CYP2D6 [O-demethylase] or midazolam for CYP3A4 [1′hydroxylase]), 0.25 μL DMSO containing test inhibitor and NADPH regenerating system. Test inhibitor concentrations of 50, 16.7, 5.6, 1.9, 0.6 and 0.2 μM were assessed in singlicate. Incubations were prewarmed to 37° C. for 10 minutes before initiation by addition of NADPH regenerating system. Incubations were quenched after 5 minutes (20 minutes for dextromethorphan) by addition of 50 μl cold acetonitrile containing 20 ng/ml 4-OH-diclofenac-13C6, 20 ng/mL dextrorphan-D3 and 20 ng/mL 1-OH-midazolam-D4. Quenched incubates were stored at −20° C. for at least 1 hour before centrifugation (20,000×g, 20 minutes). Supernatants were removed and diluted 1:1 with water prior to analysis using a RapidFire sample injector system and API4000 mass spectrometer. Peak areas for substrate, metabolite and stable-labelled metabolite standard were determined using MS/MS. The peak area ratios between the metabolite generated by the enzymatic reaction and the internal standard were used in subsequent calculations. The percentage of (DMSO) control activity was calculated for each incubate and IC50 values estimated by non-linear regression. Sulfaphenazole, quinidine or ketoconazole were tested in each CYP2C9, CYP2D6 or CYP3A4 inhibition experiment, respectively, to ensure assay sensitivity and reproducibility. (Validated assays for human cytochrome P450 activities^11)

[5] = molecular target: T4, CYP2D6 (Homo sapiens, UniProt P10635); assay: CYP inhibition assay, human liver microsomes, dextromethorphan; type: in vitro ADME; conditions: read-out: CYP IC50 2D6
T4 construct: 0.2 mg/ml pooled human liver microsomes; from tissue; host or cells: pooled human liver microsomes
T4 sequence (P10635 whole entry): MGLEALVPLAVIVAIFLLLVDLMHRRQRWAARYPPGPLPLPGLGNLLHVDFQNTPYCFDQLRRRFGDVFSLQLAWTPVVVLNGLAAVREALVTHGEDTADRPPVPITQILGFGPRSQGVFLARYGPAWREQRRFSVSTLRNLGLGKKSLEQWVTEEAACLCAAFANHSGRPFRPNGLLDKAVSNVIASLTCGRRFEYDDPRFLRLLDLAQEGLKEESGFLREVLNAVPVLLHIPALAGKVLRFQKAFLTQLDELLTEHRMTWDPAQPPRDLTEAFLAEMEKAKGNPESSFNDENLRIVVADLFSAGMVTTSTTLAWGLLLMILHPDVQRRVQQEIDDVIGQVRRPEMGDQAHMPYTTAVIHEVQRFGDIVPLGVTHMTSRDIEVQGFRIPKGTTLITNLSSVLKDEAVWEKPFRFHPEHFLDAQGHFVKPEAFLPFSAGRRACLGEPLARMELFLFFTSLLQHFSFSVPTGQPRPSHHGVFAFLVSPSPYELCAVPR
Method: as §1

[6] = molecular target: T5, CYP2C9 (Homo sapiens, UniProt P11712); assay: CYP inhibition assay, human liver microsomes, diclofenac; type: in vitro ADME; conditions: read-out: CYP IC50 2C9
T5 construct: 0.2 mg/ml pooled human liver microsomes; from tissue; host or cells: pooled human liver microsomes
T5 sequence (P11712 whole entry): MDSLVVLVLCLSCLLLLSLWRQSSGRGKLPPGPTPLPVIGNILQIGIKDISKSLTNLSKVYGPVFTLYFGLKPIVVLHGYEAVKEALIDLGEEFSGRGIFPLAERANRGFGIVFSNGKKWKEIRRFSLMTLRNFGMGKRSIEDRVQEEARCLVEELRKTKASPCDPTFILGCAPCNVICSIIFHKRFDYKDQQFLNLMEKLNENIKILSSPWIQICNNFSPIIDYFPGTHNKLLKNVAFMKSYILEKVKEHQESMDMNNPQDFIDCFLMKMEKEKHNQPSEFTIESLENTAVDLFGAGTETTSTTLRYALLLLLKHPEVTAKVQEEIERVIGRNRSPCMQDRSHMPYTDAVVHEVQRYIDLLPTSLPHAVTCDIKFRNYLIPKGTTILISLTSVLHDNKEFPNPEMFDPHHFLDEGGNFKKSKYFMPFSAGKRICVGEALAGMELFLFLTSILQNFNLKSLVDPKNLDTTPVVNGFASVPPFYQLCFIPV
Method: as §1

| efflux ratio at 2 h [1] | IC50 [3] [µM] | IC50 [4] [µM] | IC50 [5] [µM] | IC50 [6] [µM] | Compound | in vivo effect (% of control) [2] |
| --- | --- | --- | --- | --- | --- | --- |
| 3 to 10 | 135 | > 10 | 1 to 10 | > 10 | CC#CCOc1cnc(C(=O)Nc2ccc(F)c([C@@]3(C)N=C(N)O[C@@H]4CCC(F)(F)[C@@H]43)c2)cn1 [Example 1, 5-But-2-ynyloxy-pyrazine-2-carboxylic acid [3-((4S,4aR,7aR)-2-amino-5,5-difluoro-4-methyl-4,4a,5,6,7,7a-hexahydro-cyclopenta[e][1,3]oxazin-4-yl)-4-fluoro-phenyl]-amide] | A (A = less than 50% of control @ 30 mg/kg p.o.) |
|  | > 200 | > 10 | > 10 | > 10 | C[C@]1(c2cc(NC(=O)c3ccc(C#N)cn3)ccc2F)N=C(N)O[C@@H]2CCCC(F)(F)[C@@H]21 [Example 8, 5-Cyano-pyridine-2-carboxylic acid [3-((4S,4aR,8aR)-2-amino-5,5-difluoro-4-methyl-4a,5,6,7,8,8a-hexahydro-4H-benzo[e][1,3]oxazin-4-yl)-4-fluoro-phenyl]-amide] | A (A = less than 50% of control @ 30 mg/kg p.o.) |
| 3 to 10 | > 200 | > 10 | > 10 | > 10 | C[C@]1(c2cc(NC(=O)c3ccc(C#N)cn3)ccc2F)N=C(N)O[C@@H]2CCC(F)(F)[C@@H]21 [Example 2, 5-Cyano-pyridine-2-carboxylic acid [3-((4S,4aR,7aR)-2-amino-5,5-difluoro-4-methyl-4,4a,5,6,7,7a-hexahydro-cyclopenta[e][1,3]oxazin-4-yl)-4-fluoro-phenyl]-amide] | A (A = less than 50% of control @ 30 mg/kg p.o.) |
